Patent US20080293699A1, “Inhibitors of thapsigargin-induced cell death” (priority 2007, published 2008)

How the values were obtained:
[1] = tested on: ATF6; test: ATF6 proteolytic processing (immunoblotting); type: cell-based, rat; conditions: immunoblotting to detect cleaved form; listed as CID-2878746
Text: After confirming the pathway selectivity of compounds, additional downstream assays can be performed to map the specific signal transduction pathway inhibited by the compounds. In this regard, various antibody reagents are commercially available for assessing the status of the three major pathways known to be activated by ER stress: (1) PERK, (2) Ire1, and (3) ATF6 (Xu et al., J. Clinical Invest., 115:2656-2664, 2005). Immunoblotting experiments can be performed to assess the expression or phosphorylation (using phospho-specific antibodies) of marker proteins in these pathways. […] Cell lysates were prepared and analyzed by SDS-PAGE/immunoblotting using antibodies specific for phospho-c-Jun, phospho-eIF2α, phospho-p38 MAPK, and tubulin (a loading control). […] After two hrs, cell lysates were prepared, normalized for protein content, and either analyzed by SDS-PAGE/immunoblotting using anti-p38-MAPK pan-reactive antibody or phospho-specific antibody with ECL-based detection, followed by densitometry analysis of x-ray films, normalizing phosphor-p38 MAPK relative to total p38 MAPK, or analyzed using a meso-scale instrument from MSD and a procedure in which total p38 MAPK is captured on plates, and the relative amounts of phosphorylated protein were determined using phospho-specific antibody (MSD catalog #K15112D1). […]

[2] = tested on: CHOP; test: Thapsigargin-induced expression of CHOP; type: cell-based, rat; conditions: listed as CID-2878746
Experimental: CSM 14.1 cells were cultured with DMSO or with 25 μM of hit compounds for two hours followed by treatment with thapsigargin (15 μM). Cell lysates were prepared and analyzed by SDS-PAGE/immunoblotting using antibodies specific for: c-Jun, phosphor-c-Jun (ser 73), eIF2a, phosphor-eIF2a (ser 51), p38 MAPK, phosphor-p38 MAPK (Thr180/Tyr182), ATF-6, CHOP and tubulin (loading control). ER stress-induced activation of C-Jun and p38 MAPK is suppressed by the 11 hit compounds.

[3] = tested on: primary mouse neuronal cells; test: Thapsigargin-induced death of primary mouse neuronal cells, immunostaining and microscopy; type: cell-based; conditions: 25 μM, two hours before thapsigargin for 24 hours
Experimental: (§1) Primary cortical neuron cells were prepared from the […] of mice. After 14 days of maturation, the cells were preincubated with DMSO (0.2%) or 25 μM of compound 6239507 for two hours. The cells were then treated with thapsigargin (TG) for 24 hours. Cells were fixed with an aldehyde solution and subjected to immunostaining with NeuN and MAP2 antibody for staining the neuronal body and axon network. Hoechst dye was used to stain nuclei. To show the loss of the axon network by thapsigargin, a wide field was captured by fluorescent microscopy. Cells showing a condensed nucleus and shrunken neuritis were considered as dead to evaluate cell death.
as §1, with “Fluorescent microscopy was used to” for “To”, “thapsigargin.” for “thapsigargin, a wide field was captured by fluorescent microscopy.”

| SMILES | ATF6 proteolytic processing [1] | Thapsigargin-induced expression of CHOP [2] | Final DMSO concentration needed in culture media to avoid a visible cloudy precipitate | Inhibition of ER stress-induced cell death in primary mouse neuronal cells [3] |
| --- | --- | --- | --- | --- |
| CCN(CC)c1ccc(C2Nc3ccccc3NC3=C2C(=O)CC(c2ccccc2)C3)cc1 (stereo not shown) [Compound 5962123, 6-(4-diethylaminophenyl)-9-phenyl-5,6,8,9,10,11-hexahydrobenzo[c][1,5]benzodiazepin-7-one] | not inhibited | not inhibited | at least 0.2 % (v/v) | – |
| COc1ccc(C2CC(=O)C3=C(C2)Nc2ccccc2NC3c2cccc(Oc3ccccc3)c2)cc1OC (stereo not shown) [Compound 6239507] | – | – | – | can inhibit |
